Experimental data from ChEMBL document CHEMBL3885881, “DrugMatrix”.

Species: Rattus norvegicus
Assay: DrugMatrix - Regimen: Daily Repeat
Assay type: toxicity, organism-based, Sprague-Dawley
Parameters: regimen Daily Repeat, gender Male, age 6-8 weeks
Conditions: in vivo, ip, 0 mg/kg, route intraperitoneal, dose level Control, vehicle 100 % SALINE; for ABSOLUTE BASOPHIL / ABSOLUTE EOSINOPHIL / ABSOLUTE LYMPHOCYTE / ABSOLUTE MONOCYTE / ABSOLUTE SEGMENTED NEUTROPHIL / BASOPHIL / EOSINOPHIL / ERYTHROCYTE COUNT / HEMATOCRIT / HEMOGLOBIN / LEUKOCYTE COUNT / LYMPHOCYTE / MEAN CORPUSCULAR HEMOGLOBIN / MEAN CORPUSCULAR HEMOGLOBIN CONCENTRATION / MEAN CORPUSCULAR VOLUME / MONOCYTE / NEUTROPHIL / NUCLEATED RED BLOOD CELLS / PLATELET COUNT: tissue Blood; for ALANINE AMINOTRANSFERASE / ALKALINE PHOSPHATASE / ASPARTATE AMINOTRANSFERASE / BLOOD UREA NITROGEN / CARBON DIOXIDE / CHLORIDE / CHOLESTEROL / CREATININE / GLUCOSE / LACTATE DEHYDROGENASE / LIPASE / PHOSPHORUS / POTASSIUM / SODIUM / TOTAL BILIRUBIN / TOTAL PROTEIN / URIC ACID: tissue Plasma

Structure (SMILES): CC[C@H]1CN2CCc3cc(OC)c(OC)cc3[C@@H]2C[C@@H]1C[C@H]1NCCc2cc(OC)c(OC)cc21 [EMETINE]
- ABSOLUTE BASOPHIL (72 h, time 3 day): 0 CELLS/uL
- ABSOLUTE EOSINOPHIL (72 h, time 3 day): 109.67 CELLS/uL
- ABSOLUTE LYMPHOCYTE (72 h, time 3 day): 11168.33 CELLS/uL
- ABSOLUTE MONOCYTE (72 h, time 3 day): 226.17 CELLS/uL
- ABSOLUTE SEGMENTED NEUTROPHIL (72 h, time 3 day): 695.83 CELLS/uL
- BASOPHIL (72 h, time 3 day): 0%
- EOSINOPHIL (72 h, time 3 day): 0.83%
- ERYTHROCYTE COUNT (72 h, time 3 day): 6.2 x10E6/uL
- HEMATOCRIT (72 h, time 3 day): 37.68%
- HEMOGLOBIN (72 h, time 3 day): 13.67 G/DL
- LEUKOCYTE COUNT (72 h, time 3 day): 12.2 x10E3/uL
- LYMPHOCYTE (72 h, time 3 day): 91.83%
- MEAN CORPUSCULAR HEMOGLOBIN (72 h, time 3 day): 22.08 pg
- MEAN CORPUSCULAR HEMOGLOBIN CONCENTRATION (72 h, time 3 day): 36.3 G/DL
- MEAN CORPUSCULAR VOLUME (72 h, time 3 day): 60.77 fL
- MONOCYTE (72 h, time 3 day): 1.83%
- NEUTROPHIL (72 h, time 3 day): 5.5%
- NUCLEATED RED BLOOD CELLS (72 h, time 3 day): 0 /100WBC
- PLATELET COUNT (72 h, time 3 day): 755.67 x10E3/uL
- ALANINE AMINOTRANSFERASE (72 h, time 3 day): 60.83 u/L
- ALKALINE PHOSPHATASE (72 h, time 3 day): 392.5 u/L
- ASPARTATE AMINOTRANSFERASE (72 h, time 3 day): 97 u/L
- BLOOD UREA NITROGEN (72 h, time 3 day): 16.5 mg/dL
- CARBON DIOXIDE (72 h, time 3 day): 29.83 mmol/L
- CHLORIDE (72 h, time 3 day): 101.83 MEQ/L
- CHOLESTEROL (72 h, time 3 day): 72.5 mg/dL
- CREATININE (72 h, time 3 day): 0.28 mg/dL
- GLUCOSE (72 h, time 3 day): 195.33 mg/dL
- LACTATE DEHYDROGENASE (72 h, time 3 day): 240.33 u/L
- LIPASE (72 h, time 3 day): 9.67 u/L
- PHOSPHORUS (72 h, time 3 day): 12.47 mg/dL
- POTASSIUM (72 h, time 3 day): 6.15 MEQ/L
- SODIUM (72 h, time 3 day): 145.38 MEQ/L
- TOTAL BILIRUBIN (72 h, time 3 day): 0.17 mg/dL
- TOTAL PROTEIN (72 h, time 3 day): 6.7 G/DL
- URIC ACID (72 h, time 3 day): 2.42 mg/dL
- ABSOLUTE BASOPHIL (120 h, time 5 day): 0 CELLS/uL
- ABSOLUTE EOSINOPHIL (120 h, time 5 day): 50 CELLS/uL
- ABSOLUTE LYMPHOCYTE (120 h, time 5 day): 12777 CELLS/uL
- ABSOLUTE MONOCYTE (120 h, time 5 day): 280.67 CELLS/uL
- ABSOLUTE SEGMENTED NEUTROPHIL (120 h, time 5 day): 875.67 CELLS/uL
- BASOPHIL (120 h, time 5 day): 0%
- EOSINOPHIL (120 h, time 5 day): 0.5%
- ERYTHROCYTE COUNT (120 h, time 5 day): 6.42 x10E6/uL
- HEMATOCRIT (120 h, time 5 day): 39.13%
- HEMOGLOBIN (120 h, time 5 day): 14.17 G/DL
- LEUKOCYTE COUNT (120 h, time 5 day): 13.98 x10E3/uL
- LYMPHOCYTE (120 h, time 5 day): 90.83%
- MEAN CORPUSCULAR HEMOGLOBIN (120 h, time 5 day): 22.1 pg
- MEAN CORPUSCULAR HEMOGLOBIN CONCENTRATION (120 h, time 5 day): 36.2 G/DL
- MEAN CORPUSCULAR VOLUME (120 h, time 5 day): 61.07 fL
- MONOCYTE (120 h, time 5 day): 2%
- NEUTROPHIL (120 h, time 5 day): 6.67%
- NUCLEATED RED BLOOD CELLS (120 h, time 5 day): 0 /100WBC
- PLATELET COUNT (120 h, time 5 day): 838.67 x10E3/uL
- ALANINE AMINOTRANSFERASE (120 h, time 5 day): 56.5 u/L
- ALKALINE PHOSPHATASE (120 h, time 5 day): 316.5 u/L
- ASPARTATE AMINOTRANSFERASE (120 h, time 5 day): 131 u/L
- BLOOD UREA NITROGEN (120 h, time 5 day): 14.33 mg/dL
- CARBON DIOXIDE (120 h, time 5 day): 29.83 mmol/L
- CHLORIDE (120 h, time 5 day): 100.5 MEQ/L
- CHOLESTEROL (120 h, time 5 day): 65.83 mg/dL
- CREATININE (120 h, time 5 day): 0.23 mg/dL
- GLUCOSE (120 h, time 5 day): 268.83 mg/dL
- LACTATE DEHYDROGENASE (120 h, time 5 day): 343 u/L
- LIPASE (120 h, time 5 day): 9.33 u/L
- PHOSPHORUS (120 h, time 5 day): 13.95 mg/dL
- POTASSIUM (120 h, time 5 day): 5.37 MEQ/L
- SODIUM (120 h, time 5 day): 146.53 MEQ/L
- TOTAL BILIRUBIN (120 h, time 5 day): 0.12 mg/dL
- TOTAL PROTEIN (120 h, time 5 day): 6.37 G/DL
- URIC ACID (120 h, time 5 day): 1.97 mg/dL
- ABSOLUTE BASOPHIL ([…], time 14 day): 0 CELLS/uL
- ABSOLUTE EOSINOPHIL ([…], time 14 day): 111.67 CELLS/uL
- ABSOLUTE LYMPHOCYTE ([…], time 14 day): 12370.33 CELLS/uL
- ABSOLUTE MONOCYTE ([…], time 14 day): 653.33 CELLS/uL
- ABSOLUTE SEGMENTED NEUTROPHIL ([…], time 14 day): 1414.67 CELLS/uL
- BASOPHIL ([…], time 14 day): 0%
- EOSINOPHIL ([…], time 14 day): 0.67%
- ERYTHROCYTE COUNT ([…], time 14 day): 6.03 x10E6/uL
- HEMATOCRIT ([…], time 14 day): 36.65%
- HEMOGLOBIN ([…], time 14 day): 13.4 G/DL
- LEUKOCYTE COUNT ([…], time 14 day): 14.55 x10E3/uL
- LYMPHOCYTE ([…], time 14 day): 85.33%
- MEAN CORPUSCULAR HEMOGLOBIN ([…], time 14 day): 22.27 pg
- MEAN CORPUSCULAR HEMOGLOBIN CONCENTRATION ([…], time 14 day): 36.58 G/DL
- MEAN CORPUSCULAR VOLUME ([…], time 14 day): 60.85 fL
- MONOCYTE ([…], time 14 day): 4.5%
- NEUTROPHIL ([…], time 14 day): 9.5%
- NUCLEATED RED BLOOD CELLS ([…], time 14 day): 0 /100WBC
- PLATELET COUNT ([…], time 14 day): 942 x10E3/uL
- ALANINE AMINOTRANSFERASE ([…], time 14 day): 53.33 u/L
- ALKALINE PHOSPHATASE ([…], time 14 day): 293.67 u/L
- ASPARTATE AMINOTRANSFERASE ([…], time 14 day): 96.83 u/L
- BLOOD UREA NITROGEN ([…], time 14 day): 15.5 mg/dL
- CARBON DIOXIDE ([…], time 14 day): 32.17 mmol/L
- CHLORIDE ([…], time 14 day): 101.33 MEQ/L
- CHOLESTEROL ([…], time 14 day): 64 mg/dL
- CREATININE ([…], time 14 day): 0.25 mg/dL
- GLUCOSE ([…], time 14 day): 178.67 mg/dL
- LACTATE DEHYDROGENASE ([…], time 14 day): 179.5 u/L
- LIPASE ([…], time 14 day): 9.17 u/L
- PHOSPHORUS ([…], time 14 day): 10.88 mg/dL
- POTASSIUM ([…], time 14 day): 5.91 MEQ/L
- SODIUM ([…], time 14 day): 145.68 MEQ/L
- TOTAL BILIRUBIN ([…], time 14 day): 0.2 mg/dL
- TOTAL PROTEIN ([…], time 14 day): 6.38 G/DL
- URIC ACID ([…], time 14 day): 1.12 mg/dL
